Values of other authors in US20070196322A1, “Method of preparing the colon for virtual colonoscopy” (Braintree Laboratories Inc., priority 2005, published 2007).
Like-named read-outs stand apart in the source and are kept apart here.

Test system: patient

For `CC(=O)Oc1ccc(C(c2ccc(OC(C)=O)cc2)c2ccccn2)cc1` [Bisacodyl, bisacodyl], the “time to bowel movement” value (enemas) is given as “about 20 minutes”, the “time to bowel movement” value (oral administration of a tablet) is given as “three to six” and the “time to bowel movement” value (oral administration of a tablet, listed as bisacodyl) is given as “three to about six”. The “time to bowel movement” value (suppositories) was “about an hour”.
